From patent US10537570B2, “Use of pimobendan for the reduction of heart size and/or the delay of onset of clinical symptoms in patients with asymptomatic heart failure due to mitral valve disease” (priority 2016, dated 2020)

Assays:
[1] = tested on: dogs suffering from asymptomatic (occult, preclinical) heart failure due to mitral valve disease (MVD); assay: Interim analysis: pimobendan vs placebo in dogs with asymptomatic heart failure due to MVD; assay type: in vivo
[2] = tested on: dogs with MMVD and echocardiographic and radiographic evidence of cardiomegaly; settings: dog, in vivo
[3] = tested on: dogs with asymptomatic mitral valve disease; settings: after addition of pimobendan to ACE inhibitor treatment; Ouellet M et al. 2009; cited from earlier work
dogs = settings: two dogs; long-term (chronic) clinical therapy; Tissier R et al. 2005; cited from earlier work
[4] = tested on: dogs with MMVD and echocardiographic and radiographic evidence of cardiomegaly; assay: Blinded, placebo controlled study of 360 dogs (preliminary analysis of final results)

COc1ccc(-c2nc3ccc(C4=NNC(=O)CC4C)cc3[nH]2)cc1 (stereo not shown) [pimobendan, 4,5-dihydro-6-[2-(4-methoxyphenyl)-1H-benzimidazol-5-yl]-5-methyl-3(2H)-pyridazinone]
extension of survival time (all-cause mortality) compared to placebo ([1]; also printed as 5.6 months): approx. 168 days
prolongation of time to the onset of clinical signs of congestive heart failure compared to placebo ([1]; also printed as 12.0 months): approx. 359 days
safety and tolerability [2]: safe and well tolerated
long-term changes in the severity of mitral regurgitation [3]: failed to identify beneficial long-term changes
adverse effects (dogs): increased mitral valve regurgitation and myocardial hypertrophy
heart size ([4]; compared to the placebo group, measured over the first 35 days of the study, P<0.0001): reduction in heart size
rate or type of potential adverse events ([4]; pimobendan group vs placebo group): no difference between groups
Median time to the primary endpoint ([4]; pimobendan group, 95% CI 856—NA, placebo group 766 days, P=0.0038): 1228 days
Prolongation of the preclinical period ([4]; vs placebo group): approximately 15 months
Overall survival, as determined by All Cause Mortality ([4]; vs placebo group, P=0.012): significantly longer
